Assay: xn = mol fraction of the nth substance listed
Details: 101 kPa, Liquid; for speed of sound: Sing-around technique in a fixed-path interferometer

CCOC(C)(C)C [2-ethoxy-2-methylpropane] + Cc1cccc(C)c1
Details | mass density [kg/m3] | speed of sound [m/s]
288.15 K, x1 = 0.05 | 862.187 | 1345.6
288.15 K, x1 = 0.099 | 856.037 | 1332.2
288.15 K, x1 = 0.2 | 843.698 | 1303.2
288.15 K, x1 = 0.3 | 831.159 | 1274.6
288.15 K, x1 = 0.4 | 818.865 | 1245.5
288.15 K, x1 = 0.497 | 806.713 | 1217.2
288.15 K, x1 = 0.598 | 794.326 | 1188.6
288.15 K, x1 = 0.698 | 782.295 | 1161.7
288.15 K, x1 = 0.8 | 770.134 | 1133.6
288.15 K, x1 = 0.898 | 757.936 | 1106.8
288.15 K, x1 = 0.95 | 751.668 | 1092.8
288.15 K, x1 = 1 | 744.955 | 1076.4
290.65 K, x1 = 0.05 | 860.034 | 1334.7
290.65 K, x1 = 0.099 | 853.866 | 1321.5
290.65 K, x1 = 0.2 | 841.488 | 1292.6
290.65 K, x1 = 0.3 | 828.907 | 1263.8
290.65 K, x1 = 0.4 | 816.576 | 1234.8
290.65 K, x1 = 0.497 | 804.386 | 1206.4
290.65 K, x1 = 0.598 | 791.955 | 1177.8
290.65 K, x1 = 0.698 | 779.883 | 1150.8
290.65 K, x1 = 0.8 | 767.68 | 1122.5
290.65 K, x1 = 0.898 | 755.44 | 1096
290.65 K, x1 = 0.95 | 749.148 | 1081.9
290.65 K, x1 = 1 | 742.482 | 1065.1
293.15 K, x1 = 0.05 | 857.873 | 1324.1
293.15 K, x1 = 0.099 | 851.684 | 1310.9
293.15 K, x1 = 0.2 | 839.267 | 1282
293.15 K, x1 = 0.3 | 826.644 | 1253.1
293.15 K, x1 = 0.4 | 814.272 | 1224.1
293.15 K, x1 = 0.497 | 802.042 | 1195.6
293.15 K, x1 = 0.598 | 789.571 | 1167
293.15 K, x1 = 0.698 | 777.456 | 1140
293.15 K, x1 = 0.8 | 765.209 | 1111.5
293.15 K, x1 = 0.898 | 752.927 | 1085.2
293.15 K, x1 = 0.95 | 746.612 | 1070.8
293.15 K, x1 = 1 | 739.947 | 1053.7
295.65 K, x1 = 0.05 | 855.708 | 1313.4
295.65 K, x1 = 0.099 | 849.502 | 1300.3
295.65 K, x1 = 0.2 | 837.044 | 1271.3
295.65 K, x1 = 0.3 | 824.379 | 1242.3
295.65 K, x1 = 0.4 | 811.966 | 1213.3
295.65 K, x1 = 0.497 | 799.693 | 1184.7
295.65 K, x1 = 0.598 | 787.18 | 1156
295.65 K, x1 = 0.698 | 775.026 | 1129.1
295.65 K, x1 = 0.8 | 762.735 | 1100.5
295.65 K, x1 = 0.898 | 750.406 | 1074.1
295.65 K, x1 = 0.95 | 744.068 | 1059.8
295.65 K, x1 = 1 | 737.374 | 1042.2
298.15 K, x1 = 0.05 | 853.541 | 1302.9
298.15 K, x1 = 0.099 | 847.315 | 1289.8
298.15 K, x1 = 0.2 | 834.815 | 1260.8
298.15 K, x1 = 0.3 | 822.108 | 1231.6
298.15 K, x1 = 0.4 | 809.656 | 1202.6
298.15 K, x1 = 0.497 | 797.343 | 1173.8
298.15 K, x1 = 0.598 | 784.785 | 1145.1
298.15 K, x1 = 0.698 | 772.587 | 1118.2
298.15 K, x1 = 0.8 | 760.251 | 1089.5
298.15 K, x1 = 0.898 | 747.878 | 1063
298.15 K, x1 = 0.95 | 741.515 | 1048.7
298.15 K, x1 = 1 | 734.806 | 1031
300.65 K, x1 = 0.05 | 851.372 | 1292.5
300.65 K, x1 = 0.099 | 845.128 | 1279.3
300.65 K, x1 = 0.2 | 832.584 | 1250.2
300.65 K, x1 = 0.3 | 819.837 | 1221
300.65 K, x1 = 0.4 | 807.341 | 1191.8
300.65 K, x1 = 0.497 | 794.987 | 1163.1
300.65 K, x1 = 0.598 | 782.385 | 1134.2
300.65 K, x1 = 0.698 | 770.145 | 1107.3
300.65 K, x1 = 0.8 | 757.762 | 1078.4
300.65 K, x1 = 0.898 | 745.343 | 1051.9
300.65 K, x1 = 0.95 | 738.954 | 1037.6
300.65 K, x1 = 1 | 732.225 | 1019.8
303.15 K, x1 = 0.05 | 849.201 | 1282.1
303.15 K, x1 = 0.099 | 842.934 | 1268.9
303.15 K, x1 = 0.2 | 830.351 | 1239.8
303.15 K, x1 = 0.3 | 817.559 | 1210.3
303.15 K, x1 = 0.4 | 805.022 | 1181.2
303.15 K, x1 = 0.497 | 792.628 | 1152.3
303.15 K, x1 = 0.598 | 779.979 | 1123.3
303.15 K, x1 = 0.698 | 767.695 | 1096.3
303.15 K, x1 = 0.8 | 755.266 | 1067.5
303.15 K, x1 = 0.898 | 742.8 | 1040.8
303.15 K, x1 = 0.95 | 736.382 | 1026.5
303.15 K, x1 = 1 | 729.647 | 1008.6
305.65 K, x1 = 0.05 | – | 1271.7
305.65 K, x1 = 0.099 | – | 1258.6
305.65 K, x1 = 0.2 | – | 1229.3
305.65 K, x1 = 0.3 | – | 1199.8
305.65 K, x1 = 0.4 | – | 1170.5
305.65 K, x1 = 0.497 | – | 1141.6
305.65 K, x1 = 0.598 | – | 1112.5
305.65 K, x1 = 0.698 | – | 1085.4
305.65 K, x1 = 0.8 | – | 1056.5
305.65 K, x1 = 0.898 | – | 1029.8
305.65 K, x1 = 0.95 | – | 1015.3
305.65 K, x1 = 1 | – | 997.52

Source: the NIST ThermoML archive (doi:10.1016/j.fluid.2008.03.004)
